Results: patent US20120190669A1, “OXINDOLE COMPOUNDS” (CYLENE PHARMACEUTICALS, INC., priority 2008, published 2012)
pIC50: −log10 of the molar value. Like-named read-outs stand apart in the source and are kept apart here.

Molecular target: recombinant PIM-1 (Homo sapiens, UniProt P11309)
Test: PIM-1 kinase assay (radiometric, 15 uM ATP, DMSO 4%)
Type: biochemical
Conditions: for pIC50: given for compounds with IC50 at or below 2 micromolar, 15 uM ATP, read-out: PIM-1 IC50
Procedure: The following procedure was used to assay the PIM-1 kinase activity of compounds of the invention. Other methods for assaying PIM-1 and other PIM kinases, as well as methods to assay for activity against the various kinases in FIG. 1, are known in the art.
(specific activity approx. 500 cpm/pmol), DMSO 4% and test inhibitor compound at the required concentration. The reaction was initiated by the addition of the Magnesium ATP mixture. After 40 min incubation at 23° C., the reactions were quenched by the addition of 100 ul 0.75% Phosphoric acid, and the labeled peptide collected by filtration through a phosphocellulose filter plate. The plate was washed 4 times with 0.075% phosphoric acid (100 ul per well) and then, after the addition of scintillation fluid (20 ul per well), the counts were measured by a scintillation counter.

[1] = Table 1, % inhibition at the high dose (2 micromolar) in a single screening assay, 15 μM ATP

Sequence of recombinant PIM-1 (P11309 whole entry): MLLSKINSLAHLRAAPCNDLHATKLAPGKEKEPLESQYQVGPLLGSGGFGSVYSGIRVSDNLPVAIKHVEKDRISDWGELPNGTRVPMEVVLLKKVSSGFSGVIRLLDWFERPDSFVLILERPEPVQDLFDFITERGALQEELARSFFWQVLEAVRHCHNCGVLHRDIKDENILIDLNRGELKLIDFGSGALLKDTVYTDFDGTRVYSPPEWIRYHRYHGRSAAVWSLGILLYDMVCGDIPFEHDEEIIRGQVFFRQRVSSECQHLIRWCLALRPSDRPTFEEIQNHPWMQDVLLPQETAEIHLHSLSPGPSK

Row | inhibition at 2 µM [1] | pIC50 (Table 1) | SMILES | also measured
1 | 84.5% | > 5.70 | CN1CCCC(NC(=O)c2ccc(-c3ccc(/C=C4/C(=O)Nc5ccc(F)cc54)o3)cc2)C1 (centres unmarked) [Compound 85] | –
2 | 31.6% | – | CN1C(=O)/C(=C/c2ccc(-c3cccc(C(=O)O)c3)o2)c2ccccc21 [Compound 2] | –
3 | -9.22% | – | CN1CCCCC1CNC(=O)c1cccc(-c2ccc(/C=C3/C(=O)Nc4ccc(Cl)cc43)o2)c1 (centres unmarked) [Compound 44] | –
4 | – | > 6.00 | Cc1cnc(CNC(=O)c2ccc(-c3ccc(/C=C4/C(=O)Nc5ccc(Cl)cc54)o3)cc2)cn1 [Compound 140] | –
5 | 21.2% | – | CN(C)C(=O)c1cccc(-c2ccc(/C=C3/C(=O)Nc4ccc(Cl)cc43)o2)c1 [Compound 175] | –
6 | 8.84% | – | CN(C)C1CCN(C(=O)c2ccccc2-c2ccc(/C=C3/C(=O)Nc4ccc(F)cc43)o2)CC1 [Compound 67] | –
7 | – | > 6.00 | O=C(CCN1CCCC1)Nc1cccc(-c2ccc(/C=C3/C(=O)Nc4ccccc43)o2)c1 [Compound 184] | –
8 | – | > 5.70 | CN1CCC(N(C)C(=O)c2cccc(-c3ccc(/C=C4/C(=O)Nc5ccc(Cl)cc54)o3)c2)C1 (centres unmarked) [Compound 109] | –
9 | – | > 5.70 | C/C(=C1\C(=O)Nc2ccccc21)c1ccc(-c2cccc(C(=O)NCCN3CCCC3)c2)o1 [Compound 156] | –
10 | 37% | – | Cn1ccnc1CNC(=O)c1cccc(-c2ccc(/C=C3/C(=O)Nc4ccc(Cl)cc43)o2)c1 [Compound 119] | –
11 | – | > 5.70 | O=C1Nc2ccc(F)cc2/C1=C\c1ccc(-c2cc(C(=O)NCCN3CCCC3)ccc2Cl)o1 [Compound 13] | –
12 | 26.3% | – | O=C1Nc2ccc(Cl)cc2/C1=C\c1ccc(-c2cccc(C(=O)NCc3ccnc(N4CCCC4)c3)c2)o1 [Compound 141] | –
13 | 2.7% | – | O=C1Nc2cc(C(F)(F)F)ccc2/C1=C\c1ccc(-c2cccc(C(=O)NCCN3CCCC3)c2)o1 [Compound 49] | –
14 | 27.6% | – | CN1CCCC(NC(=O)c2cc(-c3ccc(/C=C4/C(=O)Nc5ccc(F)cc54)o3)ccc2Cl)C1 (centres unmarked) [Compound 70] | –
15 | 42.3% | – | Cc1cnc(CNC(=O)c2cccc(-c3ccc(/C=C4/C(=O)Nc5ccc(F)cc54)o3)c2)cn1 [Compound 18] | –
16 | 10.3% | – | CN1CCCC(NC(=O)c2ccccc2-c2ccc(/C=C3/C(=O)Nc4ccc(F)cc43)o2)C1 (centres unmarked) [Compound 63] | –
17 | – | > 6.00 | Cn1cncc1CNC(=O)c1ccc(-c2ccc(/C=C3/C(=O)Nc4ccccc43)o2)cc1 [Compound 36] | –
18 | 33.9% | – | CN1CCCCC1CNC(=O)c1cccc(-c2ccc(/C=C3/C(=O)Nc4cc(F)ccc43)o2)c1 (centres unmarked) [Compound 40] | –
19 | 43.6% | – | O=C1Nc2ccccc2/C1=C\c1ccc(-c2ccc(C(=O)NCc3ccncc3)nc2)o1 [Compound 135] | –
20 | – | > 6.00 | O=C1Nc2ccc(Cl)cc2/C1=C\c1ccc(-c2cccc(C(=O)NCCCn3ccnc3)c2)o1 [Compound 123] | –
21 | 3.52% | – | O=C1Nc2ccccc2/C1=C\c1ccc(-c2ccccc2C(=O)NCCN2CCCC2)o1 [Compound 54] | –
22 | 29.3% | – | O=C1Nc2ccc(Cl)cc2/C1=C\c1ccc(-c2cccc(C(=O)NCCc3ccccn3)c2)o1 [Compound 172] | –
23 | 11.3% | – | O=C1Nc2ccccc2/C1=C\c1ccc(-c2ccc(C(=O)NCCN3CCCC3)c(F)c2)o1 [Compound 159] | –
24 | 17.1% | – | CCN1CCCC1CNC(=O)c1cccc(-c2coc(/C=C3/C(=O)Nc4ccc(F)cc43)c2)c1 (centres unmarked) [Compound 90] | –
25 | 5.32% | – | CCN1CCCC1CNC(=O)c1cc(-c2ccc(/C=C3/C(=O)Nc4ccc(F)cc43)o2)ccc1Cl (centres unmarked) [Compound 71] | –
26 | – | > 6.00 | O=C1Nc2ccc(Cl)cc2/C1=C\c1ccc(-c2cccc(C(=O)NCCCN3CCOCC3)c2)o1 [Compound 124] | –

Row | inhibition at 2 µM [1] | pIC50 (Table 1) | SMILES | also measured
27 | 24.3% | – | CCN1CCCC1CNC(=O)c1ccc(-c2ccc(/C=C3/C(=O)Nc4ccccc43)o2)cn1 (centres unmarked) [Compound 130] | –
28 | 15.6% | – | CCN(CC)CCNC(=O)c1cc(-c2ccc(/C=C3/C(=O)Nc4ccc(F)cc43)o2)ccc1Cl [Compound 74] | –
29 | -3.02% | – | O=C1Nc2ccccc2/C1=C\c1ccc(-c2cccc(C(=O)Nc3nccs3)c2)o1 [Compound 167] | –
30 | – | > 5.70 | CN1CCCC(NC(=O)c2ccc(Cl)c(-c3ccc(/C=C4/C(=O)Nc5ccc(F)cc54)o3)c2)C1 (centres unmarked) [Compound 101] | –
31 | 32.7% | – | O=C1Nc2ccc(Cl)cc2/C1=C\c1ccc(-c2cccc(C(=O)NCCN3CCCC3)c2)o1 [Compound 43] | –
32 | – | – | CCC(=O)Nc1cc(C(=O)NCCN2CCCC2)ccc1-c1ccc(/C=C2/C(=O)Nc3ccccc32)o1 [Compound 168] | inhibition at 2 µM: -14.9%
33 | 91.3% | > 6.00 | CCN1CCCC1CNC(=O)c1ccc(-c2ccc(/C=C3/C(=O)Nc4ccc(F)cc43)o2)cc1 (centres unmarked) [Compound 84] | –
34 | 42.2% | – | O=C1Nc2ccc(F)cc2/C1=C\c1ccc(-c2cccc(C(=O)N3CCOCC3)c2)o1 [Compound 19] | –
35 | 42.6% | – | CN1CCCC(NC(=O)c2cccc(-c3ccc(/C=C4/C(=O)Nc5ccc(Cl)cc54)o3)c2)C1 (centres unmarked) [Compound 111] | –
36 | 10.8% | – | CN(C)C1CCN(C(=O)c2cccc(-c3coc(/C=C4/C(=O)Nc5ccc(F)cc54)c3)c2)CC1 [Compound 96] | –
37 | -19.1% | – | O=C1Nc2ccc(F)cc2/C1=C\c1cc(-c2cccc(C(=O)NCc3ccncc3)c2)co1 [Compound 95] | –
38 | 21% | – | Cc1cnc(CNC(=O)c2cccc(-c3ccc(/C=C4/C(=O)Nc5ccc(Cl)cc54)o3)c2)cn1 [Compound 107] | –
39 | 14.5% | – | CC(C)(C)OC(=O)Nc1cccc(-c2ccc(/C=C3/C(=O)Nc4ccccc43)o2)c1 [Compound 181] | –
40 | – | > 6.00 | Cn1cncc1CNC(=O)c1ccc(-c2ccc(/C=C3/C(=O)Nc4ccccc43)o2)cn1 [Compound 132] | –
41 | – | > 5.70 | O=C1Nc2ccc(F)cc2/C1=C\c1ccc(-c2cccc(C(=O)O)c2)o1 [Compound 10] | –
42 | -29.9% | – | CCCC(=O)Nc1cc(C(=O)NCCN2CCCC2)ccc1-c1ccc(/C=C2/C(=O)Nc3ccccc32)o1 [Compound 169] | –
43 | 9.42% | – | CN1CCCCC1CNC(=O)c1cccc(-c2coc(/C=C3/C(=O)Nc4ccc(F)cc43)c2)c1 (centres unmarked) [Compound 93] | –
44 | – | > 5.70 | O=C1Nc2ccccc2/C1=C\c1ccc(-c2ccccc2O)o1 [Compound 162] | –
45 | – | > 5.70 | Cc1cc(-c2cccc(C(=O)NCCN3CCCC3)c2)oc1/C=C1/C(=O)Nc2ccccc21 [Compound 157] | –
46 | -17.1% | – | CN1CCCN(C(=O)c2ccc(-c3ccc(/C=C4/C(=O)Nc5ccccc54)o3)cc2F)CC1 [Compound 160] | –
47 | 49.6% | – | COCCNC(=O)c1cccc(-c2ccc(/C=C3/C(=O)Nc4ccc(F)cc43)o2)c1 [Compound 17] | –
48 | -37.6% | – | O=C1Nc2ccccc2/C1=C\c1ccc(-c2ccc(Cl)c(C(=O)NCCC3CCCN3)c2)o1 (centres unmarked) [Compound 28] | –
49 | – | > 5.70 | CN(C)C1CCN(C(=O)c2ccc(Cl)c(-c3ccc(/C=C4/C(=O)Nc5ccc(F)cc54)o3)c2)CC1 [Compound 103] | –
50 | – | > 5.70 | Cc1cc(-c2cccc(C(=O)NCc3cncn3C)c2)oc1/C=C1/C(=O)Nc2ccccc21 [Compound 158] | –
51 | – | > 6.00 | Cn1cncc1CNC(=O)c1cccc(-c2ccc(/C=C3/C(=O)Nc4ccc(Cl)cc43)o2)c1 [Compound 110] | –
